Columns and labels:
IL-10 [1] = assay: Cardiac IL-10 mRNA and protein after IV N-Mgb, SnPP or both; format: in vivo, mice; conditions: for Cardiac mRNA: IL-10: control 0.36
Description: (§1) Thirty-two mice were divided into 4 equal groups: (1) control mice; (2) mice treated with 1 mg of N-Mgb injection (as a bolus through the tail vein); (3) mice treated with […] of SnPP (via tail vein); and (4) mice treated with combined N-Mgb 1 SnPP. After either 4 hours (n=16) or 18 hours (n=16), the mice were deeply anesthetized with pentobarbital (50 mg/kg), the abdomen was opened through a midline abdominal incision, and the kidneys were removed. To determine potential effects on extrarenal organs, a liver lobe and the heart were also removed. The tissues were iced and then extracted for protein and RNA (RNeasy Plus Mini; Qiagen, Valencia, California) and subjected to enzyme linked immunosorbent assay (ELISA) and reverse transcriptase polymerase chain reaction (RT-PCR) for HO-1, haptoglobin, and IL-10 protein and messenger RNAs (mRNAs). Zager et al. J Am Soc Nephrol 2014; 25:998-1012; Zager et al. Am J Physiol 2012; 303: F139-48. As an assessment of renal function, control mice and the 18 hour after N-Mgb+SnPP-treated mice had blood urea nitrogen (BUN) and plasma creatinine levels measured. Additionally, transverse 10% formalin fixed kidney sections ([…]) were cut and stained with hematoxylin and eosin (H&E) and periodic acid Schiff (PAS) to further assess potential injury.

IL-10 [2] = assay: Renal cortical IL-10 mRNA and protein after IV N-Mgb, SnPP or both; format: in vivo, mice; conditions: for Kidney protein: IL-10: control 304
Description: Cytoresistance-inducing reagents. […] (#Mb0360; Sigma) was used as the primary cytoresistance-inducing agent. However, because myoglobin (Mgb) has an inherent nephrotoxic potential (particularly under conditions of volume depletion and aciduria), two approaches were used to mitigate Mgb's potential adverse effects. First, the Mgb was converted into a nitrited form by the addition of equimolar amount of sodium (Na) nitrite. In this regard, nitrite is an ambidentate molecule that directly binds 1:1 to myoglobin Fe either via its oxygen or nitrogen component. Cotton et al. Advanced inorganic chemistry. Hobocken, NJ: Wiley-Interscience, 1999:1355; Silaghi-Dumitrescu et al. Nitric Oxide 2014; 42 C: 32-9. […] Rassaf et al. Circ Res 2014; 114:1601-10; Totzeck et al. Circulation 2012; 126:325-34 [J Clin Invest 1992; 89:989-95]; Totzeck et al. PLOS One 2014; 22: e105951; Hendgen-Cotta et al. Proc Natl Acad Sci USA 2008; 105:10256-61.
as §1

Structure (SMILES): C=Cc1c2[n-]c(c1C)/C=c1\[n-]/c(c(C)c1C=C)=C\c1[n-]c(c(CCC(=O)O)c1C)/C=c1\[n-]c(c(C)c1CCC(=O)O)=C2.[Sn+4] [SnPP, tin protoporphyrin, reference compound]
- Cardiac mRNA: IL-10 (IL-10 [1]; 4 h after Rx): 0.58 ± 0.16
- Cardiac protein: IL-10 (IL-10 [1]; 4 h after Rx, control 8.1): 15.8 ± 10^
- Cardiac mRNA: IL-10 (IL-10 [1]; 18 h after Rx): 0.53 ± 0.10
- Cardiac protein: IL-10 (IL-10 [1]; 18 h after Rx, control 8): 23.4 ± 14^
- Kidney mRNA: IL-10 (IL-10 [2]; 4 h after Rx, control 0.56): 0.39 ± 0.15
- Kidney protein: IL-10 (IL-10 [2]; 4 h after Rx): 550 ± 86
- Kidney mRNA cortex: IL-10 (IL-10 [2]; 18 h after Rx, control 0.56): 0.18 ± 0.09
- Kidney protein: IL-10 (IL-10 [2]; 18 h after Rx): 454 ± 51
